According to US10563272B2, “Compositions comprising Metarhizium fungi and use thereof as a pesticide” (Cotton Research and Development Corporation, priority 2015, dated 2020):

How the values were obtained:
green mirids [1] = assay: Rate trial on conventional cotton, ACRI 2011-12 (Example 9): green mirids; assay type: in vivo, Creontiades dilutus
Experimental: This trial was conducted in an irrigated field of commercial conventional cotton at the Australian Cotton Research Institute (ACRI) farm in Narrabri, NSW, during the 2011-2012 season. The treatments in this trial were as follows: • 1. 250 mL/ha DAT 511; • 2. 500 mL/ha DAT 511; and • 3. 1 L/ha DAT 511.
Results were compared with data from unsprayed conventional cotton crops (negative control) and conventional cotton crops treated with 62.5 mL/ha of fipronil. The population of apple dimpling bugs at the study site was higher than GVB and green mirids, and remained so throughout the season. Therefore the trials were treated and assessed from 8 Jan. to 12 Feb. 2012 for green mirids, 26 Feb. 2012 for GVB and 4 Mar. 2012 for apple dimpling bugs. The treatment plots were arranged in a randomized complete block design with eight replicates per treatment. Each replicated plot measured 16 m (16 rows) wide and 250 m long.
Foliar applications of each treatment were made on 8 Jan. 22 Jan. and 5 Feb. 2012. The decision to apply the treatment was based on the IPM Guidelines and the CottonLogic recommended economic threshold of 0.5 green mirids per metre. Pre-treatment counts were made by visual counting of the numbers of green mirid, green vegetable bug and apple dimpling bug adults and nymphs, as well as predatory beetles, predatory bugs, predatory lacewings and spiders on cotton plants in each treatment. Post-treatment counts were made following the first spray at 7 and 14 DAT, following the second spray at 7 DAT for green mirids and GVB, and up to 28 DAT for the third spray for apple dimpling bugs. All counts were done on a randomly selected one-metre length of row of each treatment replicate (i.e. total of 8 m). Data were expressed as numbers per metre and numbers per metre per sampling date for each treatment.

predatory beetles = assay: Foliar spray trial on Bollgard II cotton, Norwood 2010-11 (Example 7): predatory beetles; assay type: in vivo, Coleoptera (Coccinellidae, Melyridae); details: fipronil 62.5 mL/ha; for number of predatory beetles per meter: 1st spray, BC 667/DAT 511 0.50 L/ha; for number of predatory beetles per metre: 2nd spray, BC 667/DAT 511 0.5 L/ha
Experimental: (§1) The trial was conducted on commercial Bollgard II® cotton crops at Norwood near Moree, NSW from 5 Dec. 2010 to 19 Feb. 2011. The cotton was at the early squaring stage, when it was attractive to green mirids (Khan et al. 2004).
(§2) The study evaluated the efficacy of the following treatments against green mirids, green vegetable bugs and predatory insects: • 1. 500 mL/ha BC 667 spore in oil (1×10^7 spores/ml); • 2. 500 mL/ha DAT 511 spore in oil (1×10^7 spores/ml); • 3. 62.5 mL/ha Fipronil (conventional insecticide); and • 4. Unsprayed (control).
(§3) The treatment plots were arranged in a randomized complete block design with four replicates per treatment. Each replicated plot measured 0.5 ha. Foliar application of each treatment was made on 18 Jan. 2011 using a ground spray rig fitted with flat fan nozzles to achieve a droplet size of 80 250 μm. The treatment was applied in the mornings when temperature was between 20° C. and 28° C. The timing of treatment was based on an economic threshold of 0.5 green mirids per metre, the IPM guideline and recommendation by CottonLogic.
(§4) Pre-treatment counts of green mirid adults and nymphs, predatory beetles, predatory bugs, predatory lacewings and spiders were made by visual inspection of whole cotton plants. Both adults and nymphs of the beneficial insects were counted. Plants were assessed in randomly selected one-metre lengths of row of each treatment replicate (i.e. four metres per treatment). In all, two spray applications of each treatment were made. The first spray was made on 18 Jan. 2011. Post-treatment counts of the first spray application were taken 3, 7 and 14 days after treatment (DAT) (first spray). A second spray application was done on 1 Feb. 2011 when green mirid adults plus nymphs reached the threshold of 0.5 per metre. Post-treatment counts of the second spray application were taken 3, 7, 14, 21 and 28 DAT. Data are expressed as numbers of individuals of that species counted per metre for each treatment.

lacewings = assay: Foliar spray trial on Bollgard II cotton, Norwood 2010-11 (Example 7): lacewings; assay type: in vivo, Chrysopa spp., Micromus tasmaniae; details: fipronil 62.5 mL/ha; for number of lacewings per meter: 1st spray, BC 667/DAT 511 0.50 L/ha; for number of lacewings per metre: 2nd spray, BC 667/DAT 511 0.5 L/ha
Experimental: as §1, §2, §3, §4

green mirids [2] = assay: Rate trial on conventional cotton refuge crops, Undabri 2012 (Example 12): green mirids; assay type: in vivo, Creontiades dilutus; details: adults P<0.03, nymphs P<0.001
Experimental: This trial was conducted using commercial conventional cotton refuge crops at Undabri in Goondiwindi (28° 55'S, 150° 31′E) from 14 Feb. to 6 Mar. 2012.
The efficacy of the following treatments against green mirids, green vegetable bugs and predatory insects was assessed: • 1. 250 mL/ha DAT 511 spore in oil (1×10^7 spores/ml); • 2. 500 mL/ha DAT 511 spore in oil (1×10^7 spores/ml); • 3. 1 L/ha DAT 511 spore in oil (1×10^7 spores/ml); • 4. 62.5 mL/ha fipronil; and • 5. Unsprayed (negative control).
The plots were arranged in a randomized complete block design with three replicates per treatment. Each replicated plot measured 8 m (8 rows) wide and 250 m long.
Foliar applications of each treatment were made on 14 Feb. 2012 using a ground spray rig fitted with flat fan nozzles to achieve a droplet size of 200 μm. All insecticide formulations were water miscible. All treatments were applied using a spray volume of 100 L/ha. The untreated (negative control) plot was left unsprayed and the plot treated with synthetic insecticide received two applications similar to, and on the same date as, the plots treated with the fungus.
For each replicate, visual counts of adults and nymphs of green mirids, green vegetable bugs (GVB), apple dimpling bugs and predatory insects on whole cotton plants were made in a randomly selected 1 m length of row of cotton plants (i.e. 6 m per treatment). […]

[3] = tested on: Creontiades dilutus (green mirids); assay: Foliar spray trial on Bollgard II cotton, Norwood 2010-11 (Example 7): green mirids; assay type: in vivo; details: first spray, three DAT; BC 667/DAT 511 500 mL/ha, fipronil 62.5 mL/ha
Experimental: as §1, §2
The treatment plots were arranged in a randomized complete block design with four replicates per treatment. Each replicated plot measured 0.5 ha. Foliar application of each treatment was made on 18 Jan. 2011 using a ground spray rig fitted with flat fan nozzles to achieve a droplet size of 80 250 μm. The treatment was applied in the mornings when temperature was between 20° C. and 28° C. […]
Pre-treatment counts of green mirid adults and nymphs, predatory beetles, predatory bugs, predatory lacewings and spiders were made by visual inspection of whole cotton plants. Both adults and nymphs of the beneficial insects were counted. Plants were assessed in randomly selected one-metre lengths of row of each treatment replicate (i.e. four metres per treatment). […] Data are expressed as numbers of individuals of that species counted per metre for each treatment.

## N#Cc1nn(-c2c(Cl)cc(C(F)(F)F)cc2Cl)c(N)c1[S+]([O-])C(F)(F)F (stereo not shown) [fipronil]
Green mirids [1]; at the second spray application
  adult mirids found on treated plots: no adult mirids were found
Green mirids [1]; different rates of DAT 511, fipronil 62.5 mL/ha, P<0.0001
  adult and nymph green mirids versus unsprayed (control) plots: Significantly fewer
Green mirids [1]; seven days after second spray, DAT 511 500 mL and 1.0 L/ha, fipronil
  mirid nymphs found on treated plots: no mirid nymphs were found
Predatory beetles; 3 DAT
  number of predatory beetles per meter: 0.00 ± 0.00 a per meter
  number of predatory beetles per metre: 0.33 ± 0.33a per metre
Predatory beetles; 7 DAT
  number of predatory beetles per meter: 0.00 ± 0.00 a per meter
  number of predatory beetles per metre: 0.33 ± 0.33a per metre
Predatory beetles; 14 DAT
  number of predatory beetles per meter: 0.00 ± 0.00 a per meter
  number of predatory beetles per metre: 0.00 ± 0.00a per metre
Predatory beetles; pre-spray counts 18 Jan. 2011
  number of predatory beetles per meter: 0.67 ± 0.33 a per meter
Predatory beetles; 21 DAT
  number of predatory beetles per metre: 1.00 ± 0.58a per metre
Predatory beetles; 28 DAT
  number of predatory beetles per metre: 0.67 ± 0.33a per metre
Predatory beetles; pre-spray counts 1 Feb. 2011
  number of predatory beetles per metre: 0.00 ± 0.00a per metre
lacewings; 3 DAT
  number of lacewings per meter: 0.00 ± 0.00 a per meter
  number of lacewings per metre: 0.33 ± 0.33a per metre
lacewings; 7 DAT
  number of lacewings per meter: 0.00 ± 0.00 a per meter
  number of lacewings per metre: 0.67 ± 0.33a per metre
lacewings; 14 DAT
  number of lacewings per meter: 0.33 ± 0.33 a per meter
  number of lacewings per metre: 0.67 ± 0.33a per metre
lacewings; pre-spray counts 18 Jan. 2011
  number of lacewings per meter: 0.67 ± 0.33 a per meter
lacewings; 21 DAT
  number of lacewings per metre: 1.67 ± 0.33a per metre
lacewings; 28 DAT
  number of lacewings per metre: 1.33 ± 0.33a per metre
lacewings; pre-spray counts 1 Feb. 2011
  number of lacewings per metre: 0.33 ± 0.33a per metre
Green mirids [2]
  green mirid adults and nymphs per metre versus unsprayed plots: Significantly fewer
[3]
  green mirid mortality: 100%
